In ChEMBL document CHEMBL1201862, “PubChem BioAssay data set” (2004):
Active and inactive are the calls of the source.

What was measured:
fMet-Leu-Phe receptor = fMet-Leu-Phe receptor (Homo sapiens, UniProt P21462); assay: formyl peptide receptor binders – dose response (AID 519); assay type: functional
Genome polyprotein = Genome polyprotein (dengue virus type 2, UniProt P29990); assay: flavivirus cap methylation enzyme inhibition – biochemical, confirmation dose response, primary screen (AID 588689); assay type: functional
Leucine aminopeptidase = biological target: T1, Leucine aminopeptidase (Plasmodium falciparum 3D7, UniProt Q8IL11); assay: P. falciparum M17LAP inhibitors, primary screen, biochemical, fluorogenic H-Leu-NHMec substrate, 1536-well (AID 1619); assay type: functional
T1 sequence (Q8IL11 whole entry): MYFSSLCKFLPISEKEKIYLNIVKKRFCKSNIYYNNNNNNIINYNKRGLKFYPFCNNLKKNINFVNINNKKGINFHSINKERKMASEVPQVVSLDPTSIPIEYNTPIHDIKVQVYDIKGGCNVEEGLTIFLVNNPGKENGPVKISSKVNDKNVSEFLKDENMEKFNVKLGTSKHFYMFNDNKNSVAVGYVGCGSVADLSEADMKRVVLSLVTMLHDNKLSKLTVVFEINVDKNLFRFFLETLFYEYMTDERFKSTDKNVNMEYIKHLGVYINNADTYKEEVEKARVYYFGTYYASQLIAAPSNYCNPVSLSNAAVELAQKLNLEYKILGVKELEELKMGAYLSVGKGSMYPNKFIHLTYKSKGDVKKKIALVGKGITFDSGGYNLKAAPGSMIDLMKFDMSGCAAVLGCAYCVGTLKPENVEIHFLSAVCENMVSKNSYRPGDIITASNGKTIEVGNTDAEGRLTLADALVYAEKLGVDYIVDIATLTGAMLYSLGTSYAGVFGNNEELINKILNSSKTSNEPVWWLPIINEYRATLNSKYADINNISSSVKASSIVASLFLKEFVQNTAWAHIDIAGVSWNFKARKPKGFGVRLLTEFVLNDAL

[1] = biological target: T2, Corticotropin-releasing factor receptor 2/Corticotropin-releasing factor-binding protein (Homo sapiens, UniProt P24387+Q13324); assay: activators of CRF receptor 2 with binding protein – uHTS hits, confirmation (AID 602473); assay type: functional; settings: read-out: EC50_Mean
T2 sequence (Q13324 whole entry): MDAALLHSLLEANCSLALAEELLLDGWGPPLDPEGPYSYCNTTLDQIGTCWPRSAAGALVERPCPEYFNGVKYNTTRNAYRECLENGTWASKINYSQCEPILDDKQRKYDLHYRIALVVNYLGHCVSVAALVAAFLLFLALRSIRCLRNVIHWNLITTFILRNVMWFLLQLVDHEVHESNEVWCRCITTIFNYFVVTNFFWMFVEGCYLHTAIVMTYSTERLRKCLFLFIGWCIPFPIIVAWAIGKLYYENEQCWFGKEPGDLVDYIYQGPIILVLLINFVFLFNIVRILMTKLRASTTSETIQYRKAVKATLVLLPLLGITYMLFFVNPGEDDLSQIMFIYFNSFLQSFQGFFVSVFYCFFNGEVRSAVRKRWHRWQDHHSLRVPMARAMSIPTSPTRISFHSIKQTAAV
T2 sequence (P24387 whole entry): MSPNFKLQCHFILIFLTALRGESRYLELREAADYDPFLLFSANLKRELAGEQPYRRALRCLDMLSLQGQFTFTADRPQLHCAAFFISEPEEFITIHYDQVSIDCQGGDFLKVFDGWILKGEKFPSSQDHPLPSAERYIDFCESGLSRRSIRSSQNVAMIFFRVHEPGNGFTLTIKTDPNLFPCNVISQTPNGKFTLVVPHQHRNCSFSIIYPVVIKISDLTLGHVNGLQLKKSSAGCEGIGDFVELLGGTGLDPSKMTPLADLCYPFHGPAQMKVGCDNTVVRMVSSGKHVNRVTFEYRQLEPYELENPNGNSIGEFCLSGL

[2] = MITF: Counter assay: A375 proliferation Measured in Cell-Based System Using Plate Reader - 2084-03_Inhibitor_Dose_DryPowder_Activity_Set8.; assay type: functional; settings: A-375
[3] = MITF Orthogonal Assay: SK-MEL-5 CTG Assay Measured in Cell-Based System Using Plate Reader - 2084-02_Inhibitor_Dose_DryPowder_Activity_Set7.; assay type: functional
[4] = inhibitors of TRPM1-promoter reporter in SK-MEL-5 – cell-based, luciferase, dry powder, set 8, MITF inhibitor project, dose response (AID 624430); assay type: functional
[5] = viability of BHK-21 cells – cell-based, secondary screen, cytotoxicity control for flavivirus guanylyltransferase probe project (AID 624078); assay type: functional
[6] = biological target: T3, Apoptotic protease-activating factor 1 (Homo sapiens, UniProt O14727); assay type: functional
T3 sequence (O14727 whole entry): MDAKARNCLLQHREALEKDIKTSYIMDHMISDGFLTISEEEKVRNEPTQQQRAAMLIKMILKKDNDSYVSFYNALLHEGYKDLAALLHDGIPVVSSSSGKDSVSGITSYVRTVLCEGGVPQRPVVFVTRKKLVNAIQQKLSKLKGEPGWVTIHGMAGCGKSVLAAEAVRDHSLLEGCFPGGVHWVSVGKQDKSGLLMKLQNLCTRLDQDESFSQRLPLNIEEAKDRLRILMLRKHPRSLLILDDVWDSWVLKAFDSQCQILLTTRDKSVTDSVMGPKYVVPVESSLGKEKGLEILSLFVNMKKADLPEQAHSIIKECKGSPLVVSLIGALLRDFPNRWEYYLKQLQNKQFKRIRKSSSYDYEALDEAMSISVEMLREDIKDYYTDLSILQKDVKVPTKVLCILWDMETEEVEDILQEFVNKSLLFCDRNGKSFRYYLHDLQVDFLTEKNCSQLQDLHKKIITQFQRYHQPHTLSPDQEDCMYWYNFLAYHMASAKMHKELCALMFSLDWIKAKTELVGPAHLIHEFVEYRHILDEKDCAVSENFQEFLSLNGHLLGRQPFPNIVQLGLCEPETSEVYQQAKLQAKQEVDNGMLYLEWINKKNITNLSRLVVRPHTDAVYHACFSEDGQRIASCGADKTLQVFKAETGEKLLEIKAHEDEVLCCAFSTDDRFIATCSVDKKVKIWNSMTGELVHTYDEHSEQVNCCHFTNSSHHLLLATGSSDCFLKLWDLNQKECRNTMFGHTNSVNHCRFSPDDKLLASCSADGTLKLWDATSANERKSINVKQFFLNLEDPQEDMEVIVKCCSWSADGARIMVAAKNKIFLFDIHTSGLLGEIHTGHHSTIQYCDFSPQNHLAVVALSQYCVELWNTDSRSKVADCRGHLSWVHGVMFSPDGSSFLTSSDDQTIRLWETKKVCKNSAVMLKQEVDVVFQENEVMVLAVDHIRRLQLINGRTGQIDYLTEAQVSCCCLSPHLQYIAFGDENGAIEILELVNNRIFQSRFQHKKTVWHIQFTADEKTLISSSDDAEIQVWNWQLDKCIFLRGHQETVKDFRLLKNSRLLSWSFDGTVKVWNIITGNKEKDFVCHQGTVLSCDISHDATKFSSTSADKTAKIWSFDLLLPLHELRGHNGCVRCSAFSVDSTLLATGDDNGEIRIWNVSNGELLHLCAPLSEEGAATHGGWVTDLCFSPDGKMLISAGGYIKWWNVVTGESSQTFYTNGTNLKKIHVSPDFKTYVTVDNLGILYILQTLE

Caspase-6 = biological target: T4, Caspase-6 (Homo sapiens, UniProt P55212); assay: inhibition of CASP6 peptide cleavage – biochemical, VEID-R110 fluorescence, cherry-pick, dose response (AID 720632)
T4 sequence (P55212 whole entry): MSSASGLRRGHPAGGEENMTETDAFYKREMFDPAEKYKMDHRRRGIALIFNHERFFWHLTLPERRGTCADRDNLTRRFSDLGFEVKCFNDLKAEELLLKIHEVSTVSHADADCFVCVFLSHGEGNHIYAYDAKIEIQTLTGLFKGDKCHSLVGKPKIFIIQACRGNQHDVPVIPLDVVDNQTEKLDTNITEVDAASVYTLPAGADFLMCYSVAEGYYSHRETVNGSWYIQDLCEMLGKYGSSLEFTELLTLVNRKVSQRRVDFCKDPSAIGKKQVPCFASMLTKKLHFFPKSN

Protein RecA = biological target: T5, Protein RecA (Mycobacterium tuberculosis, UniProt P9WHJ3); assay: Fluorescence Cell-Free Homogeneous Dose Retest to Identify Inhibitors of RecA-Intein Splicing Activity. [Related pubchem assays (depositor defined):AID2097, AID2223, AID489010, AID492950]; assay type: functional
T5 sequence (P9WHJ3 whole entry): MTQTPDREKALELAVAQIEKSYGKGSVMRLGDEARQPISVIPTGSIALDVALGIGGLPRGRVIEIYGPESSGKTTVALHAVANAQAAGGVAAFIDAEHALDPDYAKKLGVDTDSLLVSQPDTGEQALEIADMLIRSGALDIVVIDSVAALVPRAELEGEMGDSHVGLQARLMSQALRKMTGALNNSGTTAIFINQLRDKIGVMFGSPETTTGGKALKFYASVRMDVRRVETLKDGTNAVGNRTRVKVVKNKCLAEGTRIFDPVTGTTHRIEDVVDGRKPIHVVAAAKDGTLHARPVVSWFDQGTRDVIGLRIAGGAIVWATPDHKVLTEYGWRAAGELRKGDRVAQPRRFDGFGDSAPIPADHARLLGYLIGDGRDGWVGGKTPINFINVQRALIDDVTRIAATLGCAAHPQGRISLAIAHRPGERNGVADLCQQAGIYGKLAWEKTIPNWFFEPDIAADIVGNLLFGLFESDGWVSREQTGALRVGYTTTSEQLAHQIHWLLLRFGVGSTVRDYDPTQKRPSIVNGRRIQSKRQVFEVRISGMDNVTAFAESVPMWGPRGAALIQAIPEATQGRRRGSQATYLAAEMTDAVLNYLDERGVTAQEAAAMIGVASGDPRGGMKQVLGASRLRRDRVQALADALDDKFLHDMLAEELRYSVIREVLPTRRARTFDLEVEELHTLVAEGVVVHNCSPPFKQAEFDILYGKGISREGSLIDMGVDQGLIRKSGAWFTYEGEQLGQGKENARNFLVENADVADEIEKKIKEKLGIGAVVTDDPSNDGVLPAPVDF

[7] = fluconazole-exposed Candida albicans growth modulators – fluorescence, retest, confirmation (AID 2467); assay type: functional, cell-based
[8] = biological target: T6, RNA-binding protein pos-1 (Caenorhabditis elegans, UniProt G5EF15); assay: disruptors of C. elegans POS-1 RNA interaction – biochemical, fluorescence polarization, dose response (AID 1964);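 note: purified POS-1 fused to maltose binding protein made in E. coli; potency of compounds blocking POS-1 binding to fluorescent RNA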
T6 sequence (G5EF15 whole entry): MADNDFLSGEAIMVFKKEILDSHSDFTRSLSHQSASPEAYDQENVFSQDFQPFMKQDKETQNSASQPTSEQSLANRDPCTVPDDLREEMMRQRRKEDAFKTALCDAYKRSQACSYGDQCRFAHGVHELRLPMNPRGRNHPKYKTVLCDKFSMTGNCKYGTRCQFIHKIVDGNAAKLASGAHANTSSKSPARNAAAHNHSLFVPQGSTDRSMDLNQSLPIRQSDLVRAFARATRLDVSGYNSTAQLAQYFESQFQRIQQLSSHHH

[9] = biological target: T7, Zinc finger protein mex-5 (Caenorhabditis elegans, UniProt Q9XUB2); assay: potency of MEX-5 RNA-binding blockers – biochemical, C. elegans, fluorescence polarization, dose response (AID 1960)
T7 sequence (Q9XUB2 whole entry): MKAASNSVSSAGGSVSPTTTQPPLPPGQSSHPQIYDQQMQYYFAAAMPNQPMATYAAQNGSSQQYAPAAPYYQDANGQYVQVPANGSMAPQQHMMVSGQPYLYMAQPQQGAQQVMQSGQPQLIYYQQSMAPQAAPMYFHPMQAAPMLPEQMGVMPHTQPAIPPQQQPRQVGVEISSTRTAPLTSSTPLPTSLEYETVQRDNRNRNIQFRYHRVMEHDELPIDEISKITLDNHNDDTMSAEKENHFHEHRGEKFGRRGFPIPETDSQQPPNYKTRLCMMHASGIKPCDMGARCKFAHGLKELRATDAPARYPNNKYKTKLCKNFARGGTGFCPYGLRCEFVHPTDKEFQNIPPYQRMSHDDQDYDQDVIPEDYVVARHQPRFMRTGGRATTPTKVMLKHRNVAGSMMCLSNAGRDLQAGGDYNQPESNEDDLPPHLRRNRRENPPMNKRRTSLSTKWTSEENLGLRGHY

Caspase-7 = Caspase-7 (Homo sapiens, UniProt P55210); assay: caspase-7 enzyme inhibition, selectivity check – biochemical, DEVD-R110 fluorescence, cherry-pick, selectivity assay for caspase-6 inhibitor project, dose response (AID 743295); assay type: functional
Caspase-9 = Caspase-9 (Homo sapiens, UniProt P55211); assay: inhibitors of purified CASP9 protease – biochemical, fluorescence, plate reader, cherry-picked samples, selectivity assay for caspase-6 inhibitor project, dose response (AID 743293)
[10] = microbe, parasite or virus in culture; assay type: functional; settings: Mycobacterium tuberculosis
[11] = NIH-3T3 fibroblast cytotoxicity, dose response, cytotoxicity control, cell-based, fluorescence, Alamar Blue, secondary assay (AID 2327); assay type: functional;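 note: NIH-3T3 mouse fibroblasts cultured with fluconazole at 8 µg/mL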
[12] = biological target: Dual specificity tyrosine-phosphorylation-regulated kinase 1A (Rattus norvegicus, UniProt Q63470); assay type: biochemical, Homo sapiens
[13] = general cell-killing toxicity readout – plate reader, dry powder samples, cytotoxicity control for PAX8 inhibitor project, dose response (AID 743021); assay type: functional, cell-based
[14] = Luminescence Cell-Based Dose Retest to Confirm Inhibitors of Cancer Stem Cells. [Related pubchem assays (depositor defined):AID2717, AID2721]; assay type: functional; settings: Homo sapiens
[15] = toxicity toward HepG2 hepatoma cells – cell-based, dry powder samples, cytotoxicity control, dose response (AID 720568); assay type: functional

Sequence of Caspase-7 (P55210 24-198 limits assumed): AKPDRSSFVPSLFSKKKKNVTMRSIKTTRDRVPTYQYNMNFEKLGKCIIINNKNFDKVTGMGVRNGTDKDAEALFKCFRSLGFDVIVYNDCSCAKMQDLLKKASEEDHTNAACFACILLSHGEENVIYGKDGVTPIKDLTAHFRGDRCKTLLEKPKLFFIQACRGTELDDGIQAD
Sequence of Caspase-7 (P55210 207-303 limits assumed): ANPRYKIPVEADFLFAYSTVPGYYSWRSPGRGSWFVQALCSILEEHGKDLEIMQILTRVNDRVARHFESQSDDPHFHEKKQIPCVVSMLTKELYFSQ
Sequence of Genome polyprotein (P29990 2492-3391 limits assumed): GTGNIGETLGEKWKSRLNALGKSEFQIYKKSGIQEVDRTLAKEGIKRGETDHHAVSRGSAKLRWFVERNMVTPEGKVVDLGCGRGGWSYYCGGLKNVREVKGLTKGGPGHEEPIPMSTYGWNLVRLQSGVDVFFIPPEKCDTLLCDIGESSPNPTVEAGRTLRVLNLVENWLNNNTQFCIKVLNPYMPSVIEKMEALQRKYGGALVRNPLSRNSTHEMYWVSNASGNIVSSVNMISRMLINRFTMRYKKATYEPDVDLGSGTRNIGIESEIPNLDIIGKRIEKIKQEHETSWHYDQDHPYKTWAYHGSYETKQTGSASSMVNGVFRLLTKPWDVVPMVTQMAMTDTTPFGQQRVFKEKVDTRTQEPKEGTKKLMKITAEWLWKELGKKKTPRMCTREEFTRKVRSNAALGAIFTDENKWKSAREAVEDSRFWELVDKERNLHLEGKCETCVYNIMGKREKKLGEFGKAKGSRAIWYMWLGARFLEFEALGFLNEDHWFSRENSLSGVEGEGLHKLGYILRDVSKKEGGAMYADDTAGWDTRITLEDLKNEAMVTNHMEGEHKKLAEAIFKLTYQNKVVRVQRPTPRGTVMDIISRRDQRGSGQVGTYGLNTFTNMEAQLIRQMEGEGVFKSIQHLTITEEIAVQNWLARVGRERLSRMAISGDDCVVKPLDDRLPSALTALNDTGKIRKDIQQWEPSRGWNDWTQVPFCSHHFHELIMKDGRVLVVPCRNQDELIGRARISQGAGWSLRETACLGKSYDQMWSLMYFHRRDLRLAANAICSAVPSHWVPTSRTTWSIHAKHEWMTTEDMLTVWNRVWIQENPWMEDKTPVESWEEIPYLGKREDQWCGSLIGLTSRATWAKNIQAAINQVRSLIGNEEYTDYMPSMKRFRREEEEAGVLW
Sequence of fMet-Leu-Phe receptor (P21462 whole entry): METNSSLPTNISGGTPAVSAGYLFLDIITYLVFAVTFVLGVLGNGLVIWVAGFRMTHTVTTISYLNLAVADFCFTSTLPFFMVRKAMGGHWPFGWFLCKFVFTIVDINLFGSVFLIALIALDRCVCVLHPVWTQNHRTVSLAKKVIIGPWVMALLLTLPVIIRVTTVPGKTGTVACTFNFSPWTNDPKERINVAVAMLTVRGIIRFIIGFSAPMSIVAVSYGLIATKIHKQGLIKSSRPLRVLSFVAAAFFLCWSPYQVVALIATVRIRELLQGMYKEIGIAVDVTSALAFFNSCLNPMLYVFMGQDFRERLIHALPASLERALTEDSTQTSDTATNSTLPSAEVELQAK
Sequence of Caspase-9 (P55211 1-315 limits assumed): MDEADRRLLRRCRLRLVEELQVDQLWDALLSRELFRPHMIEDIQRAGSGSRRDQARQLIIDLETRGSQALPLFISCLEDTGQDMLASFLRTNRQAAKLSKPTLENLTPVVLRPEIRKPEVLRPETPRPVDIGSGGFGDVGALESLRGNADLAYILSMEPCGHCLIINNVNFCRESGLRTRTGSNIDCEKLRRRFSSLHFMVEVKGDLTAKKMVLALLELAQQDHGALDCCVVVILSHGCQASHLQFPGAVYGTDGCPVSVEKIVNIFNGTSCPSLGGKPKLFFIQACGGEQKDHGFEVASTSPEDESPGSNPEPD
Sequence of Caspase-9 (P55211 331-416 limits assumed): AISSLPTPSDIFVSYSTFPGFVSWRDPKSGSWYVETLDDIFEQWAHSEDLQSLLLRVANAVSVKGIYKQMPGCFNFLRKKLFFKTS

Cc1sc(NC(=O)C2CCCCC2C(=O)O)c(C(N)=O)c1-c1ccc(C(C)(C)C)cc1 (configuration not stated)
Ki (fMet-Leu-Phe receptor): 41.2 µM (inactive) | IC50 (Genome polyprotein): 60.1 µM (active) | IC50 (Leucine aminopeptidase): 11.1 µM (active) | EC50 [1]: 5.33 µM (active)

O=C1C=C(Nc2ccc(Cl)c(C(F)(F)F)c2)C(=O)c2ccccc21
AC50 [2]: > 70 µM (inactive) | AC50 [3]: 0.754 µM (active) | AC50 [4]: > 70 µM (inactive)

O=S(=O)(Nc1cc(Sc2nc[nH]n2)c(O)c2ccccc12)c1ccc(F)cc1
CC50 [5]: 14.3 µM (active)

CN1CCc2cc3c(c4c2C1Cc1ccccc1-4)OCO3 (configuration not stated) [ROEMERINE]
IC50 [6]: 10.2 µM (active) | AC50 (Caspase-6): 3.68 µM (active) | EC50 (Protein RecA): 0.0797 µM (active) | EC50 [7]: > 38 µM (not active) | EC50 [8]: 16.8 µM (active) | EC50 [9]: 21.5 µM (inconclusive) | AC50 (Caspase-7): 1.51 µM (active) | AC50 (Caspase-9): > 70 µM (inactive) | CC50 [10]: > 40 µM (active) | EC50 [11]: > 150 µM (inactive) | AC50 [12]: 2.54 µM (active)

Nc1nc(=S)c2ncn([C@@H]3O[C@H](CO)[C@@H](O)[C@H]3O)c2[nH]1 [THIOGUANOSINE]
AC50 [13]: 2.21 µM (active) | AC50 [14]: 0.301 µM (active) | AC50 [15]: 6.38 µM (active)
